Results taken from patent US5726203A, “Qinghaosu derivatives against AIDS” (priority 1993, dated 1998).
Where a name gives a salt, the structure may show the parent alone. Read-outs that look alike come from different tables or passages of the source.

Assays:
HIV-1 (MT4) = test: Anti-HIV effect on MT4 cells, virus antigen expression (immunoenzymatic method); type: cell-based
Description: The virus used was HIV-1 which had been obtained from Professor Montagnier of the Pastear Institute, France. The virus titer used in the experiment was 1×10^4 TCID50 /ml. The cell culture used was CEM cell line which was cultivated in the HIV laboratory of Institute of Virology, Chinese Academy of Preventive Medicine, for cultivation storage of HIV-1.
The compounds used in the experiment were qinghaosu, dihydroqinghaosu, Artesunate, Artemether, dihydroqinghaosu-methylcarbamate, dihydroqinghaosu-benzenecarbamate, qinghaosu-morpholinyl propylether maleate, dihydroqinghaosu-diethyl amino ethyl ether maleate, deoxyqinghaosu-morpholinyl ethyl ether maleate, qinghaosu-morpholinyl propanol ether maleate, qinghaosu-3,5-dimonpholinyl methyl-4-hydroxy benzyl ether maleate, dihydroqinghaosu-m-chlorobenzoate, qinghaosu-3-pyrrolidinylmethyl-4-hydroxybenzoate oxalate, and qinghaosu-3-morpholinylmethyl-4-hydroxybenzoate oxalate. […] The concentration of the original solution of these compounds were all 1 mg/ml.
(§1) a. Freshly cultured MT4 cells (5×10^5 /ml) were co-cultivated with the virus fluid (10^3 TCID50 /ml) in a CO2 incubator at 37° C. for 1-1.5 hours. RPMI 1640 complete medium (containing 10% Bovine serum and antibiotics, such as penicillin) was used to wash the unbound virus.
(§2) Complete medium was added to correct the concentration for use.
(§3) The experiment was carried out on the plates with 96 wells. 0.1 ml of the above-mentioned infected MT4 cell suspension was added into each well, and then 0.1 ml of various concentrations of the drugs were added. […] Each concentration of the drugs was added into two wells. Both the experiment group and the control group were incubated in a CO2 incubator at 37° C. The drug solution were changed 3 days later, and the following observations were carried out 6 days afterwards.
b. Observation on the growth situation of cells. Trypan blue dye was used to observe the quantity of live cells in each group.
(§4) c. Determination of the virus antigen expression. The immunoenzymatic method was used to examine the virus antigen expression. Cells from each group were separately smeared in two wells. They were fixed with cold acetone, HIV-positive serum was dropped into the wells. After incubated in a CO2 incubator at 37° C. for 30 minutes, they were washed with PBS for 3 times. Enzyme-labelled SPA was dropped into the wells. They were incubated in the same condition for 30 minutes, washed with PBS for 3 times, and then put in substrate solution to stain for 2-3 minutes, washed with distilled water, and observed under microscope. Normal cells were colorless, whereas virus-carrying cells appeared browrish red.
The mark used were as follows:
The experiment was repeated two to three times.
The concentration of the original fluid of these compounds were all 1 mg/ml. 0.1 ml was taken and added into 0.1 ml of virus-carrying cell suspension, thus the reaction concentrations were as follows: in the original fluid group, 0.1 mg/0.2 ml, i.e., 0.5 mg/ml; in 1×10^-1group, 0.05 mg/ml; in 1×10^-2 group, 0.005 mg/ml; in 1×10^-3 group, 0.0005 mg/ml, i.e., 0.5 μg/ml; and on the analogy of this.

Acute toxicity in mice = type: in vivo; settings: mouse, in vivo
Procedure: Animals: Hybrid swiss strain mice (provided by Animal House of Institute of Chinese Mateia Media, China Academy of Traditional Chinese Medicine), 20-22 grams, less than 6 weeks age of both sexes fed in laboretory for 3-5 days observation and a random taking food and drinking.
Drugs: Dihydroqinghaosu-methylcarbamate and dihydroqinghaosu-benzenecarbamate.
Above two drugs in powder form were dissolved into peanut oil. The biggest dose were 2000 mg/kg and 2161 mg/kg respectively. The distances between two dose groups were 0.7 and 0.68 respectively, with 5 dose groups each drugs.
Method: The mice were given single dose of above compound respectively intragastrically, the acute intoxication manifestrations were observed the LD value (LD5, LD50 and LD95) and B value were determined by three days mortality.

U937 HIV-1 [1] = test: Inhibition effect on HIV-1 infected U937 cells (macrophage cell line), HIV antigen test (IE); type: cell-based; settings: U937 HIV-1; 50 μg/ml
Procedure: as §1, §2, §3, §4
(§5) Furthermore, a part of the compounds according to the present invention were used to test their inhibition effect on U937 cell line (macrophage cell line)according to the methods in Experiment 1.

U937 HIV-1 [2] = test: Inhibition effect on HIV-1 infected U937 cells, activity of reverse transcriptase; type: cell-based; settings: 50 μg/ml, control 24502
Description: as §5

Plasmodium Berghei = test: Peters' four day inhibition test in mice, erythrocytic stage of Plasmodium Berghei; type: in vivo; settings: once a day D0-D3, Hybrid Kunming strain mice, read-out: SD50 (the source's name)
Description: Effect on Erythrocytic Stage of Plasmodium Berghei 1. "Four day inhibition test" in mice To determinate the SD50 with Peters' "four day inhibition test". Hybrid Kunming strain mice, body weight 18-22 g, were inculated with 1×10^7 parasites infected RBC intraperitoneally on D0. Dihydroqinghaosu-methylcarbamate, dihydroqinghaosu-butylcarbamate, dihydroqinghaosu-benzenecarbamate and dihydroqinghaosu-4-nitrobenzenecarbamate with different concentration were given once a day from D0 -D3. Blood smears from mouse's tail were made on D4, stained with Gimsa reagent and examined under microscope to count the infected and uninfected erthrocyte to get infected rate. Inhibitory rates of different dosages were calculated by following formula. The SD50 was calculated by the simplified probit analysis: [formula]

[3] = cited from earlier work

| Molecule | effect on HIV-1 (MT4), virus antigen expression (HIV-1 (MT4); 1 × 10^-1 (50 μg/ml)) | effect on HIV-1 (MT4), virus antigen expression (HIV-1 (MT4); 1 × 10^-2 (5 μg/ml)) | effect on HIV-1 (MT4), virus antigen expression (HIV-1 (MT4); 1 × 10^-3 (0.5 μg/ml)) | further results |
| --- | --- | --- | --- | --- |
| C[C@H]1[C@@H](O)O[C@@H]2O[C@@]3(C)CC[C@H]4[C@H](C)CC[C@@H]1[C@@]24OO3 [Dihydroqinghaosu, dihydroqinghaosu, reference compound] | - (positive cells were not seen in the whole well) | - (positive cells were not seen in the whole well) | ± (there were only 1-2 doubtful positive cells in whole well) | effect on HIV-1 (MT4), virus antigen expression (HIV-1 (MT4); 1 × 10^-4 (0.05 μg/ml)): + (there were 2-3 or more positive cells in the whole well); LD50 (Acute toxicity in mice; po, P.O. (per os)): 765 mg/kg |
| C[C@H]1[C@H](OC(=O)CCC(=O)O)O[C@@H]2O[C@@]3(C)CC[C@H]4[C@H](C)CC[C@@H]1[C@@]24OO3 [Artesunate, reference compound] | - (positive cells were not seen in the whole well) | - (positive cells were not seen in the whole well) | - (positive cells were not seen in the whole well) | effect on HIV-1 (MT4), virus antigen expression (HIV-1 (MT4); 1 × 10^-4 (0.05 μg/ml)): + (there were 2-3 or more positive cells in the whole well); Antigen test (IE) (U937 HIV-1 [1]): - (positive cells were not seen in the whole well); Activity of reverse transcription (CPM) (U937 HIV-1 [2]): 4846 CPM; LD50 (Acute toxicity in mice; I.V. (Intravenous injection)): 769 mg/kg |
| CCCCNC(=O)OC1OC2OC3(C)CCC4C(C)CCC(C1C)C24OO3 (stereo not shown) [Dihydroqinghaosu-butylcarbamate, dihydroqinghaosu-butylcarbamate] | – | – | – | ED50 (Plasmodium Berghei): 0.25 mg/kg |
| CCN(CC)CCOC1OC2OC3(C)CCC4C(C)CCC(C1C)C24OO3 (stereo not shown) [dihydroqinghaosu-diethyl amino ethyl ether maleate] | ± (there were only 1-2 doubtful positive cells in whole well) | + (there were 2-3 or more positive cells in the whole well) | + (there were 2-3 or more positive cells in the whole well) | – |
| CC1CCC2C(C)C(OC(=O)Nc3ccc([N+](=O)[O-])cc3)OC3OC4(C)CCC1C32OO4 (stereo not shown) [Dihydroqinghaosu-4-nitrobenzenecarbamate, Dihydroqinghaosu-P-Nitrobenzenecarbamate] | – | – | – | ED50 (Plasmodium Berghei): 0.3 mg/kg |
| CC1CCC2C(C)C(OC(=O)c3cccc(Cl)c3)OC3OC4(C)CCC1C32OO4 (stereo not shown) [Dihydroqinghaosu-m-chlorobenzoate, dihydroqinghaosu-m-chlorobenzoate] | - (positive cells were not seen in the whole well) | - (positive cells were not seen in the whole well) | + (there were 2-3 or more positive cells in the whole well) | – |
| Deoxyquinghaosu-morpholinyl propanol ether maleate | - (positive cells were not seen in the whole well) | + (there were 2-3 or more positive cells in the whole well) | - (positive cells were not seen in the whole well) | – |
| C[C@@H]1CC[C@H]2[C@@H](C)C(=O)O[C@@H]3O[C@@]4(C)CC[C@@H]1[C@]32OO4 [Qinghaosu, Qinghaosu (Artemisinin)] | - (positive cells were not seen in the whole well) | - (positive cells were not seen in the whole well) | + (there were 2-3 or more positive cells in the whole well) | effect on HIV-1 (MT4), virus antigen expression (HIV-1 (MT4); 1 × 10^-4 (0.05 μg/ml)): + (there were 2-3 or more positive cells in the whole well) |
| qinghaosu-morpholinyl propanol ether maleate | + (there were 2-3 or more positive cells in the whole well) | + (there were 2-3 or more positive cells in the whole well) | + (there were 2-3 or more positive cells in the whole well) | – |
| CC1CCC2C(C)C(OCc3cc(CN4CCOCC4)c(O)c(CN4CCOCC4)c3)OC3OC4(C)CCC1C32OO4.O=C(O)/C=C\C(=O)O (stereo not shown) [qinghaosu-3,5-dimonpholinyl methyl-4-hydroxy benzyl ether maleate] | + (there were 2-3 or more positive cells in the whole well) | + (there were 2-3 or more positive cells in the whole well) | + (there were 2-3 or more positive cells in the whole well) | – |
| O=c1[nH]cnc2c1ncn2[C@H]1CC[C@@H](CO)O1 [DDI, di-deoxytrophicardyl] | – | – | – | toxicity to peripheral nerves ([3]; in vivo): toxicity to peripharal nerves |
| CO[C@H]1O[C@@H]2O[C@@]3(C)CC[C@H]4[C@H](C)CC[C@@H]([C@H]1C)[C@@]24OO3 [Artemether, reference compound] | - (positive cells were not seen in the whole well) | - (positive cells were not seen in the whole well) | ± (there were only 1-2 doubtful positive cells in whole well) | effect on HIV-1 (MT4), virus antigen expression (HIV-1 (MT4); 1 × 10^-4 (0.05 μg/ml)): + (there were 2-3 or more positive cells in the whole well); LD50 (Acute toxicity in mice; im, I.M. (Intramuscular injection)): 263 mg/kg |
| qinghaosu-morpholinyl propylether maleate | - (positive cells were not seen in the whole well) | + (there were 2-3 or more positive cells in the whole well) | + (there were 2-3 or more positive cells in the whole well) | – |
| qinghaosu-3-pyrrolidinylmethyl-4-hydroxybenzoate oxalate | - (positive cells were not seen in the whole well) | + (there were 2-3 or more positive cells in the whole well) | - (positive cells were not seen in the whole well) | – |
| Nc1ccn([C@H]2CC[C@@H](CO)O2)c(=O)n1 [DDC, di-deoxycytidine] | – | – | – | toxicity to peripheral nerves ([3]; appears 6 weeks after drug administration): toxicity to peripharal nerves |
| qinghaosu-3-morpholinylmethyl-4-hydroxybenzoate oxalate | ± (there were only 1-2 doubtful positive cells in whole well) | + (there were 2-3 or more positive cells in the whole well) | + (there were 2-3 or more positive cells in the whole well) | – |
